Measurements reported in article PMC9927415, “Tyrosine Kinase Inhibitors Display Potent Activity against Cryptosporidium parvum” (Microbiology Spectrum, 2022).

How the values were obtained:
Test in all cases: KINOMEscan competitive binding, whole panel
panel of 203 kinases [1] = biological target: T1, panel of 203 kinases (Homo sapiens, UniProt P53667); settings: 10 µM, n=1; kinase LIMK1; read-out: Percent inhibition LIMK1
T1 construct: purchased DiscoverX (KINOMEscan)
Method in brief: (§1)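 Percentage inhibition reflects loss of kinase binding to solid-phase ATP-site probe ligands in the presence of compound. Kinases carry a T7 bacteriophage fusion.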

panel of 203 kinases [2] = biological target: T2, panel of 203 kinases (Homo sapiens, UniProt P49840); settings: 10 µM, n=1; kinase GSK3A; read-out: Percent inhibition GSK3A
T2 construct: purchased DiscoverX (KINOMEscan)
Method in brief: as §1

panel of 203 kinases [3] = biological target: T3, panel of 203 kinases (Homo sapiens, UniProt P49761); settings: 10 µM, n=1; kinase CLK3; read-out: Percent inhibition CLK3
T3 construct: purchased DiscoverX (KINOMEscan)
T3 sequence (P49761 whole entry): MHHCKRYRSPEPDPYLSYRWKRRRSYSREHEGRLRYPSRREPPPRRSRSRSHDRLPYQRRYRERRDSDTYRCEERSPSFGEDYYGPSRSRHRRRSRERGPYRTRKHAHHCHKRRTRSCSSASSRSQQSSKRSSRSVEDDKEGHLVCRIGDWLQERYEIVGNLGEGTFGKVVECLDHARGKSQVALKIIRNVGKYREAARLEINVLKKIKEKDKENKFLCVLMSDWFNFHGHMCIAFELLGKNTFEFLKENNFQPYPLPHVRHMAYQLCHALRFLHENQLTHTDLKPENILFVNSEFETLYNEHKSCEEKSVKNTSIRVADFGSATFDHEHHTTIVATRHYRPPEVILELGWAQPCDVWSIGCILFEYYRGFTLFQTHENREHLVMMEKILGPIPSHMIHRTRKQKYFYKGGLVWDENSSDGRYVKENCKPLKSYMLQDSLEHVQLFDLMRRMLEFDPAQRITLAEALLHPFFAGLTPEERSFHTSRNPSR
Method in brief: as §1

panel of 203 kinases [4] = biological target: T4, panel of 203 kinases (Homo sapiens, UniProt P37023); settings: 10 µM, n=1; kinase ACVRL1; read-out: Percent inhibition ACVRL1
T4 construct: purchased DiscoverX (KINOMEscan)
T4 sequence (P37023 22-503): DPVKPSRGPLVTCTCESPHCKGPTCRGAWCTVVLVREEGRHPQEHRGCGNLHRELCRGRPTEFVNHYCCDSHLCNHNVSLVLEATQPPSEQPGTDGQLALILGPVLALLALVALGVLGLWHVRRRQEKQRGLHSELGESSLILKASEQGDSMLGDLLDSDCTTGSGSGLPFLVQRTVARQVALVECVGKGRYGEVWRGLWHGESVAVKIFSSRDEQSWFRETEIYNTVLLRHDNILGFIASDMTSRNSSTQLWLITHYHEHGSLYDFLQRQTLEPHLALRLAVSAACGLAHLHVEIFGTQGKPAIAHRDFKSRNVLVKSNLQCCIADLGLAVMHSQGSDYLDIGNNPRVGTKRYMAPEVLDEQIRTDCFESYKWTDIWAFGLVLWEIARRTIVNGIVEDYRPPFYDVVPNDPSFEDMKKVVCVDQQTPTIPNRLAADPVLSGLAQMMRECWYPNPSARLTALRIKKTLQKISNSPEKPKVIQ
Method in brief: as §1

panel of 203 kinases [5] = biological target: T5, panel of 203 kinases (Homo sapiens, UniProt Q8IVH8); settings: 10 µM, n=1; kinase MAP4K3; read-out: Percent inhibition MAP4K3
T5 construct: purchased DiscoverX (KINOMEscan)
T5 sequence (Q8IVH8 1-894): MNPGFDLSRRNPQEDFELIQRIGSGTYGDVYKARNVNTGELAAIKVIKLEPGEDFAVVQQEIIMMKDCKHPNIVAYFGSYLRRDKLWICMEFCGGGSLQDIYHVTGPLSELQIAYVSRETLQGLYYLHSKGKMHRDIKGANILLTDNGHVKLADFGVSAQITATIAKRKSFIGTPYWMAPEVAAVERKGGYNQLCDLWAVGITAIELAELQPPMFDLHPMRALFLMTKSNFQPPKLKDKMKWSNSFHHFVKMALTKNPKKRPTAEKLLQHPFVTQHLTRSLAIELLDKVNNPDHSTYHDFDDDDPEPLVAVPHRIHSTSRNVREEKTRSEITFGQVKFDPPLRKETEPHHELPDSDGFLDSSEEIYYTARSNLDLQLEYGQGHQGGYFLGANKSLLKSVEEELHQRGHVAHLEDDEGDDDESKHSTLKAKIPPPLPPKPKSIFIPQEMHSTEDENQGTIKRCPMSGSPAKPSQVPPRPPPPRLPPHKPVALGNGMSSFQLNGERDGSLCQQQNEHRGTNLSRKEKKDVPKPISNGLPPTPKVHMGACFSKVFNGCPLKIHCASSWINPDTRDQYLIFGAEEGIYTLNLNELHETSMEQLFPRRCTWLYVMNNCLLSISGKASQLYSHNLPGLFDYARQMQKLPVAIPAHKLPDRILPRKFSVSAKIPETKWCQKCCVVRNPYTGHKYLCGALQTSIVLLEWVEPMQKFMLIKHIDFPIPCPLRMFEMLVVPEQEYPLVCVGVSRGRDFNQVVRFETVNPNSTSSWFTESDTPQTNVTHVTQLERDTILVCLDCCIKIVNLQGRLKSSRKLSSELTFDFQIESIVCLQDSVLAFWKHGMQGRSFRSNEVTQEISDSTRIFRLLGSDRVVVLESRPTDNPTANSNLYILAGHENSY
Method in brief: as §1

panel of 203 kinases [6] = biological target: T6, panel of 203 kinases (Homo sapiens, UniProt P42685); settings: 10 µM, n=1; kinase FRK; read-out: Percent inhibition FRK
T6 construct: purchased DiscoverX (KINOMEscan)
Method in brief: as §1

panel of 203 kinases [7] = biological target: T7, panel of 203 kinases (Homo sapiens, UniProt Q13555); settings: 10 µM, n=1; kinase CAMK2G; read-out: Percent inhibition CAMK2G
T7 construct: purchased DiscoverX (KINOMEscan)
T7 sequence (Q13555 whole entry): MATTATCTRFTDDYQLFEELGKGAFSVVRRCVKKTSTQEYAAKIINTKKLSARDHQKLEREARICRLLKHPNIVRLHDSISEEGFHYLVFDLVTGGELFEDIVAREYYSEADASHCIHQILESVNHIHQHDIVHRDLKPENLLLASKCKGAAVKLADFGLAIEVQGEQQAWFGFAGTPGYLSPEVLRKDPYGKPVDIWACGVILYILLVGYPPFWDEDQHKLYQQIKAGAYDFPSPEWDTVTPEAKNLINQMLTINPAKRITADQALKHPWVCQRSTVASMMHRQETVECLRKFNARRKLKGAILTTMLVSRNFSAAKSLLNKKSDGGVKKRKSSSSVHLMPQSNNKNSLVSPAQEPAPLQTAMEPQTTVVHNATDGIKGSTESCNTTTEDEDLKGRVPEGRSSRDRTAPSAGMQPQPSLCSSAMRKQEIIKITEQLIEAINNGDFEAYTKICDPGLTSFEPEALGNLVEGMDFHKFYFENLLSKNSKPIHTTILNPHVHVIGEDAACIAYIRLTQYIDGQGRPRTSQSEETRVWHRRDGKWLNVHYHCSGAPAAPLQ
Method in brief: as §1

panel of 203 kinases [8] = biological target: T8, panel of 203 kinases (Homo sapiens, UniProt P04626); settings: 10 µM, n=1; kinase ERBB2; read-out: Percent inhibition ERBB2
T8 construct: purchased DiscoverX (KINOMEscan)
T8 sequence (P04626 23-1255): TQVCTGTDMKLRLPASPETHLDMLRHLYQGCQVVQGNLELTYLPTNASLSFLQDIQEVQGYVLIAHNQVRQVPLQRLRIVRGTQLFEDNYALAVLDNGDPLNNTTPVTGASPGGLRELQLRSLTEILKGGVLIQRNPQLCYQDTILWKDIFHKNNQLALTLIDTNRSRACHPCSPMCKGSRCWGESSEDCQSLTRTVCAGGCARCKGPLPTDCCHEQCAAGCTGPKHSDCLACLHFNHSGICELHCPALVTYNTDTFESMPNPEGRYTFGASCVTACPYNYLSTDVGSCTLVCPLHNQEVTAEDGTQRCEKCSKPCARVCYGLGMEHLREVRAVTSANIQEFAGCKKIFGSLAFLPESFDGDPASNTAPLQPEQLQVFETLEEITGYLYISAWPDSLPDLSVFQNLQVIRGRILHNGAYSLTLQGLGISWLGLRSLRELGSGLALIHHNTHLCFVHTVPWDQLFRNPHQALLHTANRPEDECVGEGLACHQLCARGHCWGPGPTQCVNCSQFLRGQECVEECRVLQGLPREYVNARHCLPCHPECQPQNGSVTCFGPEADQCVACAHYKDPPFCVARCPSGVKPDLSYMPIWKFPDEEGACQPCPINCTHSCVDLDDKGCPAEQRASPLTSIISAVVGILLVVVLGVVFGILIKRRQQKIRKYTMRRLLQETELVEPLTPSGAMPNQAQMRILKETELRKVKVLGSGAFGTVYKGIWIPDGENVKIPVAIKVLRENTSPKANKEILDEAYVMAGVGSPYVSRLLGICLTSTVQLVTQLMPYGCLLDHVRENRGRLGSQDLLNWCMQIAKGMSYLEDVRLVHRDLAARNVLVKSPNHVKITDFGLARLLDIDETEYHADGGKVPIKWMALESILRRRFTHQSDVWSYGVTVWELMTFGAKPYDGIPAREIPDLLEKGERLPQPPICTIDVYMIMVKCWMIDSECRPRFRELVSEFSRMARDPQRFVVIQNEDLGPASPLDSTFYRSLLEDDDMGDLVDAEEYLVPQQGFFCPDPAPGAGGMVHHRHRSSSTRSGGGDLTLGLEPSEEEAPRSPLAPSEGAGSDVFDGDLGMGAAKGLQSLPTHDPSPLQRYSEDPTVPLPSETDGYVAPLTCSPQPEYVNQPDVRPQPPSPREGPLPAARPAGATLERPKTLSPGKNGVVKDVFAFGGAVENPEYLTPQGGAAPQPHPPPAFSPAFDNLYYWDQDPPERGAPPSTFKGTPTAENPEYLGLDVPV
Method in brief: as §1

panel of 203 kinases [9] = biological target: T9, panel of 203 kinases (Homo sapiens, UniProt Q8IU85); settings: 10 µM, n=1; kinase CAMK1D; read-out: Percent inhibition CAMK1D
T9 construct: purchased DiscoverX (KINOMEscan)
T9 sequence (Q8IU85 whole entry): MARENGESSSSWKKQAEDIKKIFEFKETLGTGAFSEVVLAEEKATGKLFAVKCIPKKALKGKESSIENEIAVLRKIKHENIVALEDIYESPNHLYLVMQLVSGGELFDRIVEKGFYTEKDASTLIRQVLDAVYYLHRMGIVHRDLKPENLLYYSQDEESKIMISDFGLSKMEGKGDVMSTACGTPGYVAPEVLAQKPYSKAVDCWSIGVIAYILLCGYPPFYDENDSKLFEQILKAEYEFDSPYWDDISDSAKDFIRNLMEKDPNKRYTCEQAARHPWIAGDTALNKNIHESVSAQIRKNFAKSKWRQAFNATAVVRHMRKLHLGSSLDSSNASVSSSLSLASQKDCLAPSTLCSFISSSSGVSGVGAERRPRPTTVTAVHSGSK
Method in brief: as §1

panel of 203 kinases [10] = biological target: T10, panel of 203 kinases (Homo sapiens, UniProt P29317); settings: 10 µM, n=1; kinase EPHA2; read-out: Percent inhibition EPHA2
T10 construct: purchased DiscoverX (KINOMEscan)
Method in brief: as §1

panel of 203 kinases [11] = biological target: T11, panel of 203 kinases (Homo sapiens, UniProt P09769); settings: 10 µM, n=1; kinase FGR; read-out: Percent inhibition FGR
T11 construct: purchased DiscoverX (KINOMEscan)
T11 sequence (P09769 whole entry): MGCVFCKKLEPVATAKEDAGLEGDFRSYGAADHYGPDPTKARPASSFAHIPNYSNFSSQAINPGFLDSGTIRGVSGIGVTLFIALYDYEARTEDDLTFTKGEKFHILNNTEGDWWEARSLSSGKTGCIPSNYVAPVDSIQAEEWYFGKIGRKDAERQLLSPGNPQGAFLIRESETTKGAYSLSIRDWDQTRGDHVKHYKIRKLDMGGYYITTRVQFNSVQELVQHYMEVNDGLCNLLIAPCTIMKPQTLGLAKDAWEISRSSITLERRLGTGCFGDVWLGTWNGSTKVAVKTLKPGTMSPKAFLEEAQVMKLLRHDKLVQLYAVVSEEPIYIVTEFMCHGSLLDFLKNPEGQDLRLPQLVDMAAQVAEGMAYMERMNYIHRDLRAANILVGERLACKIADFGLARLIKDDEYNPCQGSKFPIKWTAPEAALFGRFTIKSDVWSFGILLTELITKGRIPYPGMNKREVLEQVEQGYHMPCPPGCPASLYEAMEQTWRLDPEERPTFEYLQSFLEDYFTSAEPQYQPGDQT
Method in brief: as §1

panel of 203 kinases [12] = biological target: T12, panel of 203 kinases (Homo sapiens, UniProt P21802); settings: 10 µM, n=1; kinase FGFR2; read-out: Percent inhibition FGFR2
T12 construct: purchased DiscoverX (KINOMEscan)
Method in brief: as §1

panel of 203 kinases [13] = biological target: T13, panel of 203 kinases (Homo sapiens, UniProt P31751); settings: 10 µM, n=1; kinase AKT2; read-out: Percent inhibition AKT2
T13 construct: purchased DiscoverX (KINOMEscan)
T13 sequence (P31751 whole entry): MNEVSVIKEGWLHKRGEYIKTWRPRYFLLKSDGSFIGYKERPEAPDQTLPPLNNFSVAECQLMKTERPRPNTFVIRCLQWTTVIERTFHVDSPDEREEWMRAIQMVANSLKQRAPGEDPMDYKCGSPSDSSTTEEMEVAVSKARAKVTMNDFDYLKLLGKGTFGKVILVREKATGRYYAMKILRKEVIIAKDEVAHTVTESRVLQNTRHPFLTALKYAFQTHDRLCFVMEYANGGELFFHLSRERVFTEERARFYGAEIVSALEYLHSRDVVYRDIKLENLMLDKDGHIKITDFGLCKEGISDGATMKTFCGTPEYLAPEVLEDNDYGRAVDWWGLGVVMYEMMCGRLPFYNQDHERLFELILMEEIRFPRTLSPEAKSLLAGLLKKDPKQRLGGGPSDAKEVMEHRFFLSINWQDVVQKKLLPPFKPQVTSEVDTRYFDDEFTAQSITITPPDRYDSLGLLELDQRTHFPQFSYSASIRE
Method in brief: as §1

panel of 203 kinases [14] = biological target: T14, panel of 203 kinases (Homo sapiens, UniProt Q13554); settings: 10 µM, n=1; kinase CAMK2B; read-out: Percent inhibition CAMK2B
T14 construct: purchased DiscoverX (KINOMEscan)
Method in brief: as §1

panel of 203 kinases [15] = biological target: T15, panel of 203 kinases (Homo sapiens, UniProt Q9P0L2); settings: 10 µM, n=1; kinase MARK1; read-out: Percent inhibition MARK1
T15 construct: purchased DiscoverX (KINOMEscan)
T15 sequence (Q9P0L2 whole entry): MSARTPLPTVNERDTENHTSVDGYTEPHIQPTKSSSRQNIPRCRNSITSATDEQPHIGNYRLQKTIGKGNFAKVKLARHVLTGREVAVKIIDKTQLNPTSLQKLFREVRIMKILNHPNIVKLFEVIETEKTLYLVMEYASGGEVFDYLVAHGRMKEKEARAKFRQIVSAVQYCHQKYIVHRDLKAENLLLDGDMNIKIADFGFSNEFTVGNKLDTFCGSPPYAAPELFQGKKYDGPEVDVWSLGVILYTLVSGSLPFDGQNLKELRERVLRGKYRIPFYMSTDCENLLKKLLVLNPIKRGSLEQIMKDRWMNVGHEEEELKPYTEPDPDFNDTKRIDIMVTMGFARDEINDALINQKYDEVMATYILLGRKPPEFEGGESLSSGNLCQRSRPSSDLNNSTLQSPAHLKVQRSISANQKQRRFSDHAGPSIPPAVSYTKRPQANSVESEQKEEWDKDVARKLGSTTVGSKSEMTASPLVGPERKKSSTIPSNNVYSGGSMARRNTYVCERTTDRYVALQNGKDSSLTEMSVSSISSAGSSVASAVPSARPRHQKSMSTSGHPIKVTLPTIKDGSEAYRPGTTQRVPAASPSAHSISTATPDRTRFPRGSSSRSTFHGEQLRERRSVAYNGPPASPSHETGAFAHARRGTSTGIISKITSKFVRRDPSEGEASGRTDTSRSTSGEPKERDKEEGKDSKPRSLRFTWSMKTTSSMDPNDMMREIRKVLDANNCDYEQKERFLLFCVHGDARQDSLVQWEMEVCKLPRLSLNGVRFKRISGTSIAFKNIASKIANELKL
Method in brief: as §1

panel of 203 kinases [16] = biological target: T16, panel of 203 kinases (Homo sapiens, UniProt Q8TDX7); settings: 10 µM, n=1; kinase NEK7; read-out: Percent inhibition NEK7
T16 construct: purchased DiscoverX (KINOMEscan)
Method in brief: as §1

| SMILES | inhibition at 10 µM (panel of 203 kinases [1]) [%] | inhibition at 10 µM (panel of 203 kinases [2]) [%] | inhibition at 10 µM (panel of 203 kinases [3]) [%] | inhibition at 10 µM (panel of 203 kinases [4]) [%] | inhibition at 10 µM (panel of 203 kinases [5]) [%] | inhibition at 10 µM (panel of 203 kinases [6]) [%] | inhibition at 10 µM (panel of 203 kinases [7]) [%] | inhibition at 10 µM (panel of 203 kinases [8]) [%] | inhibition at 10 µM (panel of 203 kinases [9]) [%] | inhibition at 10 µM (panel of 203 kinases [10]) [%] | inhibition at 10 µM (panel of 203 kinases [11]) [%] | inhibition at 10 µM (panel of 203 kinases [12]) [%] | inhibition at 10 µM (panel of 203 kinases [13]) [%] | inhibition at 10 µM (panel of 203 kinases [14]) [%] | inhibition at 10 µM (panel of 203 kinases [15]) [%] | inhibition at 10 µM (panel of 203 kinases [16]) [%] |
| --- | --- | --- | --- | --- | --- | --- | --- | --- | --- | --- | --- | --- | --- | --- | --- | --- |
| CN1CCN(c2ccc(Nc3nccc(-c4cnn5ncccc45)n3)cc2C#N)CC1 [Compound 1] | 85.9 | 100 | 98.7 | 85 | 97 | 91.8 | 97.7 | 0 | 98.3 | 0 | 89.5 | 70.1 | 0 | 96.5 | 85.3 | 100 |
| COc1ccc(Nc2nccc(-c3cnn4ncccc34)n2)cc1 [Compound 2] | 90.5 | 100 | 94.8 | 0 | 79.3 | 0 | 75.2 | 0 | 0 | 0 | 67.4 | 0 | 0 | 73.9 | 0 | 100 |
| Cc1ccc(O)cc1Nc1ccnc(Nc2cccc(C(N)=O)c2)n1 [Compound 3] | 86.4 | 69.7 | 0 | 99.7 | 80.2 | 99.6 | 0 | 0 | 0 | 99.9 | 100 | 0 | 0 | 0 | 0 | 0 |
| Cc1ccc(O)cc1N(C)c1ccnc(Nc2cccc(S(N)(=O)=O)c2)n1 [Compound 4] | 91.9 | 91.3 | 70.5 | 100 | 98.5 | 99.5 | 0 | 0 | 70 | 99.5 | 100 | 0 | 0 | 0 | 0 | 0 |
| Fc1cccc(COc2ccc(Nc3ncnc4c3CN(CCN3CCOCC3)CC4)cc2Cl)c1 [Compound 6] | 0 | 0 | 0 | 0 | 0 | 0 | 0 | 86.5 | 0 | 0 | 0 | 0 | 0 | 0 | 0 | 0 |
